Measurements published in ChEMBL document CHEMBL3507680, “University of Dundee, Gates Library screen for HepG2 cell viability”.

Test: Human HepG2 cell viability assay in 384 well format
Type: toxicity, cell-based
Set-up: dose 125 nL, time 70.5 hour; cytotoxicity at 70.5 h: concentration not given beside the values
Settings: HepG2 cells, read-out: Inhibition

SMILES	cytotoxicity at 70.5 h [%]
CCc1cn[nH]c1C1CCN(C(=O)c2cc(C#N)c(=O)[nH]c2C)CC1	-3.13
Cc1ccc(C(=O)N2CCC3(CCN(c4ccsc4)C3=O)C2)cn1 (configuration not stated)	6.79
Cn1cc(C(=O)Nc2cccc(F)c2)ccc1=O	0.823
Cc1cc(CNC(=O)CN2CCN(C(=O)OC(C)(C)C)CC2)ccc1F	13.3
CC(C)(C)c1noc(CN2CCCC(CNS(N)(=O)=O)C2)n1 (configuration not stated)	-2.1
O=C(N[C@@H]1CCN(c2nccc3ccccc23)C[C@H]1O)c1cnccn1	9.52
CN(C)C(CNCc1nc(-c2ccsc2)no1)c1cccs1 (configuration not stated)	-8.94
CN1CCN(C[C@@H]2CN(C(=O)CC3CCCCC3)C[C@@H]2CO)CC1	0.234
CC1(C(N)=O)CCCN(c2cnccn2)C1 (configuration not stated)	5.53
COc1cccc(NC(=O)CN2CCN(S(C)(=O)=O)CC2)c1	-8.85
CCc1nnsc1C(=O)N(C)Cc1nnc2n1CCC2	5.35
COc1cccc(SCC(=O)N2CCC(N3CCCC(O)C3)CC2)c1 (configuration not stated)	-2.74
CC(C)c1noc(C(C)N2CCC(c3nc4ccccc4o3)CC2)n1 (configuration not stated)	-18.9
CC(C)(C)n1ncc2c1CCCC2NCc1ccc2c(c1)OCCO2 (configuration not stated)	29.2
CC(C)c1cc(C(=O)N(Cc2ccncc2)CC2CCCO2)no1 (configuration not stated)	-6.68
CN(C)C(=O)N1CCN(C(=O)Nc2nc(-c3ccccc3)ns2)CC1	-5.92
N#Cc1cnc(N2CCC3(CC2)OCCO3)nc1N	-5.59
CN(C)C(=O)CN1CCc2ncnc(NC3CCC3)c2CC1	0.00388
COc1ccccc1OC1CCN(c2nccc(N)n2)CC1	19.5

SMILES	cytotoxicity at 70.5 h [%]
COCCOc1cccc(CNCc2ccc(-n3cncn3)nc2)c1	-4.01
CCOC1CCN(C(=O)c2cc(-c3ccc(Cl)cc3)on2)CC1	-5.56
COCCN1CCCC1Cn1nc(C)cc1C (configuration not stated)	8.46
CC(C)CCn1ccc(NC2CCSC2)n1 (configuration not stated)	-8.47
O=C(O)c1ccn(COc2c(Cl)cccc2Cl)n1	-7.49
O=C(c1ccco1)N1Cc2cnn(CC3CC3)c2C(COCC2CC2)C1 (configuration not stated)	15.4
CCOCC(=O)N1CCCn2c(nnc2Cn2cccc2)C1	3.11
Cc1nn(C)c(C)c1CC(=O)N1CCCC(n2cccn2)C1 (configuration not stated)	-2.45
Cc1ccc(C(=O)N2C[C@H]3CC[C@@H]2CN(S(=O)(=O)N(C)C)C3)c(O)c1	14.2
COc1ccccc1NC(=O)NC(C)c1nc[nH]n1 (configuration not stated)	0.321
COCC(=O)Nc1ccc(Oc2ccsc2C(=O)O)cc1	-6.01
O=C(c1cnccn1)N1CCCC2(CCN(Cc3cccnc3)C2)C1 (configuration not stated)	-4.19
Cc1ccc(C)c(S(=O)(=O)N2CCN(C)C3(CCC(=O)N(C)CC3)C2)c1 (configuration not stated)	-13.3
Cc1nc2ccccc2nc1CN1CCOC(Cn2cccn2)C1 (configuration not stated)	-9.86
O=C(NCCCSC1CCCCC1)C1NCCc2[nH]cnc21 (configuration not stated)	-1.27
Cc1ccc(Cl)c2c1C1(NC(=O)c3cccnc3N1)C(=O)N2 (configuration not stated)	-5.73
CCN(C)c1ncnc2c1CCN(Cc1ccc(F)cc1)CC2	19.9
Cc1nc(CN2CCN(CCOc3ccc(C(C)C)c(C)c3)CC2)no1	8.91
COc1cc(-c2nccn2CCn2cccn2)cc2c1OCO2	-1.97

SMILES	cytotoxicity at 70.5 h [%]
CN(C)C(=O)CNC(CC(F)(F)F)c1ccc(F)cc1 (configuration not stated)	7.18
CCOc1ccc(CCCC(=O)N2CCC(c3nnn[nH]3)CC2)cc1C	-11.9
O=C(NCc1ccco1)c1ccc(N2CCOCC2)cc1	0.191
Cc1cc(CN(Cc2cccs2)CC2CCCO2)no1 (configuration not stated)	-0.996
COCCN1CCN(C(=O)c2ccncc2F)Cc2cccnc21	-12.3
Cc1ncc2c(n1)CN(CC(O)COc1ccc(C#N)cc1)CC2 (configuration not stated)	-3.74
COc1ccccc1CN1C[C@@H](F)[C@@H](OCc2nc3cnccc3[nH]2)C1	-4.23
CCC(C)NC(=O)c1cc(S(=O)(=O)N2CCCC2)c(C)s1 (configuration not stated)	-3.53
c1cc(CNCc2cccc3c2OCCCO3)cc(Cn2cncn2)c1	-8.37
CN1C(=O)Cc2cc(-c3csc(CCN4CCOC4=O)n3)ccc21	6.81
CC(C)NC(=O)c1ccc(NC(=O)NC(C)c2ccccn2)cc1 (configuration not stated)	19.1
Cc1n[nH]c(C)c1CCN(C)c1ccc(-c2nc(C3CC3)no2)cn1	4.49
Cc1ccc(-c2nc(CN3CCCC(Cn4cncn4)C3)no2)cc1 (configuration not stated)	27.5
COCCN1CCN(C(=O)c2ccc(C)cc2OC)[C@H]2CS(=O)(=O)C[C@H]21	-11.7
c1ccc(-c2noc3c2CN(CC2CC2)CC3)cc1	-3.25
Cc1cc(Cc2ccc(S(=O)(=O)N3CCSCC3)cc2)c(=O)[nH]n1	1.5
Cc1ccc(C(=O)N2CCn3cnc(COCC4CC4)c3C2)cn1	-5.4
CN(C)c1ncc(-c2c(-c3ccccc3)ncn2C(CO)C(=O)O)cn1 (configuration not stated)	-10.8
COCC1(CNC(=O)[C@@]23CNC[C@@H]2CN(C2CCCC2)C3)CC1	-3.2
